According to patent US8507420B2, “Solvent composition” (Toyota Jidosha Kabushiki Kaisha, priority 2009, dated 2013):
“Also recorded” adds a separate entry of the source.

Experiments:
[1] = Thermal stability of SOD mimetic compounds (retained SOD activity after thermal process in solvents/oils); type: physicochemical; conditions: for decline in activity after thermal process: dehydrated ethanol, 60 minutes, FIG. 4; for retained activity / retained activity after thermal process: 120 minutes; for retained activity after thermal process: solvent not stated
Description: (§1) In this example, Mn-cpx3, Mn-TBAP, Mn-TMPyP and Mn-TM-2-PyP were purchased from Aldrich Company, and were used as SOD mimetic compounds. These compounds are low-molecular complex having π-conjugate system. These compounds are basically water-soluble, and are also soluble in ethanol and in lubricating oils. In the case where an SOD mimetic compound was to be dissolved in ethylene glycol, and in a food oil containing vegetable sterol and glycerin ester as main components, the SOD mimetic compound was first dissolved in ethanol, and then the ethanol solution was added into ethylene glycol and a food oil. In the case where an SOD mimetic compound was to be dissolved in an engine oil (trade name: Eneos Motor Oil), the SOD mimetic compound was firstly dissolved in dimethyl sulfoxide (DMSO), and then the DMSO solution was added into the engine oil. As for the concentration conditions for thermal stability, investigation was performed in the presence of 1 to 10 μg/mL of an SOD mimetic compound in the water-based solution and 10 to 50 μg/mL of an SOD mimetic compound in the oil-based solution, with 10% of ethanol or DMSO, in the temperature range of 50 to 140° C.
The SOD activity of the SOD mimetic compounds was measured by using as an index the oxidation of a water-soluble tetrazolium salt (WST) by oxygen radicals generated from xanthin-xanthin oxidase. Specifically, the WST was used as a substrate of the oxidation by oxygen radicals, and the activity measurement was performed by using as an index the difference in the production of water-soluble tetrazolium formazan made by the presence and the absence of the SOD mimetic compound (see the following document: H. Ueda, D. Kawana, S. Maeda and M. Sawamura, Biosci. Biotechnol. Biochem., 63, 485-488, 1999). As the WST is oxidized to become water-soluble tetrazolium formazan, ultraviolet absorption occurs at 450 nm. Therefore, by measuring this ultraviolet absorption, the oxidation reaction by oxygen radicals can easily be measured. The activity measurement buffer was a 35 mM sodium carbonate solution (pH 10.2) containing 0.17 mM of xanthin and 0.11 mM of EDTA. The oxidation substrate used was 0.24 mM of the WST. The SOD mimetic compounds were dissolved in ethanol or DMSO. The concentrations thereof at the time of measurement of activity were 0.1 to 0.8 μg/mL.
In this example, the vegetable food oil used was diacyl glycerol. Mn-TMPyP retained 50% of the activity at 70° C. after 120 minutes, and 40% of the activity at 100° C. after 120 minutes. […] It has become clear that Mn-cpx3 is particularly excellent in the SOD-mimetic activity and the thermal stability in food oil.
With regard to Mn-cpx3, which was considered to be the most excellent in activity and thermal stability, the stability thereof in other oil solutions was investigated. […] However, in engine oil, the stability sharply declines to about 10 to 20%.

[2] = SOD activity measurement (WST oxidation by oxygen radicals from xanthin-xanthin oxidase, absorption at 450 nm); type: biochemical; conditions: FIG. 2
Description: In this activity measurement system, the WST used as the oxidation substrate can be considered to be a model compound as the substance that is subject to oxidation by oxygen radicals, that is, as the functional substance. […]

[3] = Solubility of SOD mimetic compounds in water, ethanol, oils; type: physicochemical; conditions: solvent as stated in value
Description: as §1

[4] = vegetable food oil (diacyl glycerol), 100° C., FIG. 5

Compound	decline in activity after thermal process ([1]; 70° C.)	retained activity ([1]; vegetable food oil (diacyl glycerol), 70° C., FIG. 5) [%]	retained activity [1, 4] [%]	retained activity after thermal process ([1]; 50° C.) [%]	retained activity after thermal process ([1]; 100° C.) [%]	retained activity ([1]; ethylene glycol, 140° C., FIG. 6) [%]	retained activity ([1]; vegetable food oil (diacyl glycerol), 140° C., FIG. 5) [%]	stability in water-based ethanol ([1]; water-based ethanol)	relative activity per unit weight with reference to the enzyme activity of the PEG-modified A. per SOD ([2]; after the process in ethanol at 50° C. for 10 minutes) [times]	relative activity per unit weight with reference to the enzyme activity of the PEG-modified A. per SOD ([2]; in water) [times]	solubility [3]
O=C(O)c1ccc(C2=C3C=CC(=N3)C(c3ccc(C(=O)O)cc3)=c3ccc([nH]3)=C(c3ccc(C(=O)O)cc3)c3ccc([n-]3)C(c3ccc(C(=O)O)cc3)c3ccc2[n-]3)cc1.[Cl-].[Mn+3] (stereo not shown) [Mn-TBAP, Mn(III) tetrakis(4-benzoic acid)porphyrin chloride]	substantially no decline in the activity										
C[n+]1ccc(-c2c3nc(c(-c4cc[n+](C)cc4)c4ccc([nH]4)c(-c4cc[n+](C)cc4)c4nc(c(-c5cc[n+](C)cc5)c5ccc2[nH]5)C=C4)C=C3)cc1.[Mn+3] [Mn-TMPyP, Mn(III) tetrakis(1-methyl-4-pyridyl)porphyrin]		50	40								
manganese (Mn) complex of 7-hydroxyflavone [Mn-cpx3]	substantially no decline in the activity		60	~100	≥ 70	70	50	highly stable	850	460	soluble in ethylene glycol and in vegetable oil; also recorded: soluble even in oil solutions
